12 molecules from ChEMBL document CHEMBL2029345, “BC-spiro-estradiols. Synthesis and estrogen receptor binding affinity of four new estradiol isomers” (Bioorg Med Chem Lett, 2012) can be followed below.

Experiment [1] concerns the target Estrogen receptor beta (Homo sapiens) (UniProt Q92731). As to the kind of experiment: Displacement of [3H]estradiol from human full length estrogen receptor beta by competitive radiometric assay relative to estradiol. On the technique in general: Loss of bound radioactivity is the signal in a displacement assay; it reports binding, not function.
The target in experiment [2] is T1, Estrogen receptor (Homo sapiens) (UniProt P03372).
T1 sequence (whole entry): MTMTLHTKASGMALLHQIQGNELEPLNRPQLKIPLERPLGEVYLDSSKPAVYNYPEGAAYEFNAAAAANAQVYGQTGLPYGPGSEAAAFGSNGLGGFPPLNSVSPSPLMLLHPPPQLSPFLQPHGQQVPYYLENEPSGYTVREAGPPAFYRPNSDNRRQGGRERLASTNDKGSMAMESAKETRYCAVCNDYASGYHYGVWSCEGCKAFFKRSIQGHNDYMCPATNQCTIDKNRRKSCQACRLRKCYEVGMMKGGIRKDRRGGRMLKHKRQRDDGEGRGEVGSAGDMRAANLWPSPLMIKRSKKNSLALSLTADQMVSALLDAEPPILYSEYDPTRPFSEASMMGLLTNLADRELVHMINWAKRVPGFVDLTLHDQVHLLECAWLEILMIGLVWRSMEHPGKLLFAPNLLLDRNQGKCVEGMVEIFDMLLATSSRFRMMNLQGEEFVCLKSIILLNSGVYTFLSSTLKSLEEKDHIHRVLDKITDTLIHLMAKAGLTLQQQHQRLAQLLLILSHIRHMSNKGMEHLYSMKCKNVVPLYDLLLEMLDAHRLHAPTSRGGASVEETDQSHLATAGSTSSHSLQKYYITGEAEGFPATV
As to the kind of experiment: Displacement of [3H]estradiol from human full length estrogen receptor alpha by competitive radiometric assay relative to estradiol.

Estrogen receptor beta (Homo sapiens), sequence (Q92731 whole entry): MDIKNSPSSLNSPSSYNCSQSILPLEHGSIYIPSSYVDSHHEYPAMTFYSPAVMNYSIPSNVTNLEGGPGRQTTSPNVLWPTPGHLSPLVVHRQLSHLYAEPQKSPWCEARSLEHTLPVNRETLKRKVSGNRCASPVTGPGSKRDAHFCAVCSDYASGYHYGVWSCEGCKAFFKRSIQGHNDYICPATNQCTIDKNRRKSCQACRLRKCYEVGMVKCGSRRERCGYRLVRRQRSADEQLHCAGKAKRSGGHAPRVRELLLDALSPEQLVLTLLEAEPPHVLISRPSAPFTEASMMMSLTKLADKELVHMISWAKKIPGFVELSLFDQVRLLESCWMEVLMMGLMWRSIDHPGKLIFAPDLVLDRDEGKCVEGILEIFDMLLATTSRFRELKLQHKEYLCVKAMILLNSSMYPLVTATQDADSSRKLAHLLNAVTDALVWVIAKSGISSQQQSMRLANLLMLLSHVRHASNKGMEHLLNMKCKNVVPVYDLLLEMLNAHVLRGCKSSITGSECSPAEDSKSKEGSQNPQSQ

Turning to `C[C@]12CC[C@H](c3ccc(O)cc3)C[C@@H]1CC[C@@H]2O`, the values for the relative binding affinity (RBA) in experiment [1] and in experiment [2] were 9.97 and 2.38, respectively.

Turning to `C[C@]12CC[C@]3(CCc4cc(O)ccc43)C[C@H]1CC[C@H]2O`, the relative binding affinity (RBA) is 0.37 in experiment [1] and 0.34 in experiment [2].

Consider `C[C@]12CC[C@@]3(CCc4cc(O)ccc43)C[C@H]1CC[C@@H]2O`, for which the values for the relative binding affinity (RBA) in experiment [1] and in experiment [2] were 40.5 and 6.4, respectively.

On to `C[C@]12CC[C@]3(CCc4cc(O)ccc43)C[C@@H]1CC[C@@H]2O`, for which the relative binding affinity (RBA) in experiment [1] amounted to 0.23; in experiment [2] it was 0.12.

In the case of `C[C@]12CC[C@@]3(C[C@H]1CC[C@H]2O)OCc1cc(O)ccc13`, the relative binding affinity (RBA) was 0.02 in experiment [1] and 0.014 in experiment [2].

As to `C[C@]12CC[C@]3(C[C@H]1CC[C@@H]2O)OCc1cc(O)ccc13`, the relative binding affinity (RBA) was found to be 9.05 in experiment [1] and 2.46 in experiment [2].

For `C[C@]12CC[C@@H](c3ccc(O)cc3)C[C@H]1CC[C@H]2O`, the figures for the relative binding affinity (RBA) in experiment [1] and in experiment [2] were 0.59 and 0.061, respectively.

`C[C@]12CC[C@]3(C[C@H]1CC[C@@H]2O)OC(=O)c1cc(O)ccc13`: the relative binding affinity (RBA) amounted to 6.07 in experiment [1] and 1.98 in experiment [2].

Take `C[C@]12CC[C@]3(CCCc4cc(O)ccc43)C[C@H]1CC[C@H]2O`: the relative binding affinity (RBA) came out at 0.16 in experiment [1] and 0.05 in experiment [2].

For `C[C@]12CC[C@@]3(CCCc4cc(O)ccc43)C[C@H]1CC[C@@H]2O`, the values for the relative binding affinity (RBA) in experiment [1] and in experiment [2] were 39.7 and 3.7, respectively.

In the case of `C[C@]12CC[C@]3(C[C@H]1CC[C@@H]2O)OCCc1cc(O)ccc13`, the relative binding affinity (RBA) in experiment [1] worked out at 3.47; in experiment [2] it was 0.31.

`C[C@]12CC[C@@]3(CCc4cc(O)ccc43)C[C@@H]1CC[C@@H]2O`: the figures for the relative binding affinity (RBA) in experiment [1] and in experiment [2] were 2.43 and 0.98, respectively.
